Each block holds one compound with its values, some of them ahead of it.
Experiments:
Cavia porcellus [1] = species: Cavia porcellus; test: Tested for inhibition against thromboxane A2/prostaglandin H2 receptor in guinea pig washed platelets using radioligand [3H]U-46619 at 1 uM
[2] = system: Thromboxane-A synthase (Bos taurus); test: Tested against TXA2 synthase in bovine platelet microsome at 10 uM
[3] = Tested for specific binding of radioligand [3H]U-46619 to thromboxane A2/prostaglandin H2 receptor in guinea pig washed platelets; parameters: species or system Cavia porcellus
Rattus norvegicus [4] = test: Tested for the effect at 30 mg/kg through peroral route on rat serum creatinine, 24 hr after reperfusion; (p<0.05); format: functional, organism-based; parameters: dose 30 mg/kg
Homo sapiens = species: Homo sapiens; test: In vitro inhibition of U-46619 (3 uM) -induced human platelet aggregation; format: functional
Rattus norvegicus [5] = test: Tested for the effect at 30 mg/kg through peroral route on rat blood urea nitrogen, 24 hr after reperfusion; (p<0.01); format: functional; details: route oral
Rattus norvegicus [6] = test: Tested for the effect at 30 mg/kg through peroral route on rat blood urea nitrogen, 48 hr after reperfusion; (p<0.05); format: functional; details: route oral
Rattus norvegicus [7] = test: Tested for the effect at 30 mg/kg through peroral route on rat serum creatinine, 48 hr after reperfusion; format: functional, organism-based; parameters: dose 30 mg/kg
[8] = Tested for specific binding of radioligand [3H]U-46619 to thromboxane A2 /prostaglandin H2 receptor in guinea pig washed platelets; parameters: species or system Cavia porcellus
Cavia porcellus [9] = species: Cavia porcellus; test: Tested for inhibition against thromboxane A2/prostaglandin H2 receptor in guinea pig washed platelets using radioligand [3H]U-46619 at 100 uM

inhibition (Cavia porcellus [1]): 12%
SMILES: O=C(O)c1ccc2c(c1)C(NCc1cccnc1)c1ccccc1CO2 (racemic)

inhibition (Cavia porcellus [1]): 6% | inhibition [2]: -4%
SMILES: O=C(O)c1ccc2c(c1)C(NCc1ccccc1)c1ccccc1CO2 (racemic)

SMILES: O=C(O)c1ccc2c(c1)C(SCc1cccnc1)c1ccccc1CO2 (single isomer, unassigned; (+))
Ki [3]: 8200 nM

SMILES: O=C(O)c1ccc2c(c1)/C(=C\Cn1ccnc1)c1ccccc1CO2
Ki [3]: 4500 nM

SMILES: O=C(O)c1ccc2c(c1)C(SCc1cccnc1)c1ccccc1CO2 (stereo in doubt; (-)-3)
Ki [3]: 85 nM

SMILES: O=C(O)c1ccc2c(c1)/C(=C/Cn1ccnc1)c1ccccc1CO2
Ki [3]: 600 nM

SMILES: O=C(O)c1ccc2c(c1)C(SCc1ccccc1)c1ccccc1CO2 (racemic)
Ki [3]: 40 nM | inhibition [2]: 19%

IC50 (Homo sapiens): 9600 nM
SMILES: O=C(O)c1ccc2c(c1)/C(=C\Cc1cccnc1)c1ccccc1CO2
Serum creatinine (Rattus norvegicus [4]): 1.48 | Blood urea nitrogen (Rattus norvegicus [5]): 34.18 | Blood urea nitrogen (Rattus norvegicus [6]): 30.37 | Serum creatinine (Rattus norvegicus [7]): 1.16 | Ki [3]: 180 nM

SMILES: O=C(O)c1ccc2c(c1)/C(=N\Cc1cccnc1)c1ccccc1CO2
Ki [8]: 120 nM

inhibition (Cavia porcellus [9]): 14%
SMILES: C/C(=C\c1ccc(Cc2cccnc2)cc1)C(=O)O

SMILES: O=C(O)c1ccc2c(c1)C(SCc1cccnc1)c1ccccc1CO2 (racemic)
Ki [3]: 250 nM

IC50 (Homo sapiens): 280000 nM
SMILES: O=C(O)CCCC/C=C(\c1ccccc1)c1cccnc1 [(E)-ISBOGREL]
Serum creatinine (Rattus norvegicus [4]): 2.07 | Ki [8]: 2700 nM | Blood urea nitrogen (Rattus norvegicus [5]): 58.07 | Blood urea nitrogen (Rattus norvegicus [6]): 48.38 | Serum creatinine (Rattus norvegicus [7]): 2.02
